The values that follow are results of earlier work, collected in EP4140474A1, “NUT[…] THE REDUCTION OF OSTE[…] AND INFLAMMATION” (Theracell Advanced Biotechnology S.A., priority 2021, dated 2023).

The target in series [1] is lipoxygenase.
Series [2] concerns the target MMP13 (Homo sapiens, UniProt P45452). Particulars: selective inhibitor of MMP13.

Take `Oc1ccc(C=Cc2cc(O)cc(O)c2)cc1` [resveratrol]: the IC50 in series [1] was 2700 nM.

`O=C(/C=C/c1ccc(O)c(O)c1)O[C@H](Cc1ccc(O)c(O)c1)C(=O)O` [rosmarinic, rosmarinic acid]: the IC50 in series [2] is 2900 nM.

Broadly, the IC50 is the concentration needed to halve the response being measured.
